Measurements as given in patent US10647727B2, “Substituted pyrazolo/imidazolo bicyclic compounds as PDE2 inhibitors” (Merck Sharp & Dohme Corp., priority 2015, dated 2020).
Where two headings read alike, the source gives them in different places.

What was measured:
human PDE2A1 = human PDE2A1 (Homo sapiens (Human), UniProt O00408); test: biochemical; type: biochemical
Rhesus PDE2A3 = Rhesus PDE2A3 (Macaca mulatta, UniProt B3VTJ2); test: PDE2 fluorescence polarization (IMAP FP) inhibition assay, rhesus enzyme; type: biochemical, rhesus macaque
Rhesus PDE2A3, sequence (B3VTJ2 1-941): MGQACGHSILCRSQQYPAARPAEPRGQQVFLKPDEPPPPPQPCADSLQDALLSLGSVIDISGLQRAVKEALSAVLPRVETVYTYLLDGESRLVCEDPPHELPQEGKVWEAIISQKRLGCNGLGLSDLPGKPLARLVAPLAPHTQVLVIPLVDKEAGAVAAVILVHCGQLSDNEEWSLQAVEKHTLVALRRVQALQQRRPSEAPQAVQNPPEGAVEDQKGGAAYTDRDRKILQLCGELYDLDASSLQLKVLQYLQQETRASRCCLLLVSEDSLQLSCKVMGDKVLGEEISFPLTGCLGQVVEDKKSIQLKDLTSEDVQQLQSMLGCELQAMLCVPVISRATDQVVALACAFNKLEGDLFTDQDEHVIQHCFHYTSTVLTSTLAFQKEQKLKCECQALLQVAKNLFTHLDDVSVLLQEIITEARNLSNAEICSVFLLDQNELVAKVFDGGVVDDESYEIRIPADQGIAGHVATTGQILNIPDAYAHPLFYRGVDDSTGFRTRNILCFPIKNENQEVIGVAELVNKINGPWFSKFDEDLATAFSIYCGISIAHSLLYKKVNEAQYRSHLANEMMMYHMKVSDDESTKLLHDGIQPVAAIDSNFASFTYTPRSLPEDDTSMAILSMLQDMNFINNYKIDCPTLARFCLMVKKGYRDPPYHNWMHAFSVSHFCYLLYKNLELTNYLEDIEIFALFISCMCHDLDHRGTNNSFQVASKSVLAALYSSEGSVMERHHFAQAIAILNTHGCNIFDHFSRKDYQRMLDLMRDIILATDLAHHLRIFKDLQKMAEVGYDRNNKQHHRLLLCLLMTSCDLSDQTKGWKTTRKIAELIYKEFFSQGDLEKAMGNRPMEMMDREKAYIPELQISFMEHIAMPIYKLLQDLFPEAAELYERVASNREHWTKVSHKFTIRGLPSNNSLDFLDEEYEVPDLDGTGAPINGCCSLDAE

[1] = reported in Brandon et al. 2007; cited from earlier work
[2] = Lab B, read-out: Human PDE2 Ki (nM) Lab B
[3] = Lab A, read-out: Rhesus PDE2 Ki (nM) Lab A
[4] = Lab B, read-out: Rhesus PDE2 Ki (nM) Lab B
[5] = read-out: Human PDE2 Ki (nM) Lab B
[6] = Lab A, read-out: Human PDE2 Ki (nM) Lab A

human PDE2A1, sequence (O00408 other isoform, or with tags, fused parts or gaps): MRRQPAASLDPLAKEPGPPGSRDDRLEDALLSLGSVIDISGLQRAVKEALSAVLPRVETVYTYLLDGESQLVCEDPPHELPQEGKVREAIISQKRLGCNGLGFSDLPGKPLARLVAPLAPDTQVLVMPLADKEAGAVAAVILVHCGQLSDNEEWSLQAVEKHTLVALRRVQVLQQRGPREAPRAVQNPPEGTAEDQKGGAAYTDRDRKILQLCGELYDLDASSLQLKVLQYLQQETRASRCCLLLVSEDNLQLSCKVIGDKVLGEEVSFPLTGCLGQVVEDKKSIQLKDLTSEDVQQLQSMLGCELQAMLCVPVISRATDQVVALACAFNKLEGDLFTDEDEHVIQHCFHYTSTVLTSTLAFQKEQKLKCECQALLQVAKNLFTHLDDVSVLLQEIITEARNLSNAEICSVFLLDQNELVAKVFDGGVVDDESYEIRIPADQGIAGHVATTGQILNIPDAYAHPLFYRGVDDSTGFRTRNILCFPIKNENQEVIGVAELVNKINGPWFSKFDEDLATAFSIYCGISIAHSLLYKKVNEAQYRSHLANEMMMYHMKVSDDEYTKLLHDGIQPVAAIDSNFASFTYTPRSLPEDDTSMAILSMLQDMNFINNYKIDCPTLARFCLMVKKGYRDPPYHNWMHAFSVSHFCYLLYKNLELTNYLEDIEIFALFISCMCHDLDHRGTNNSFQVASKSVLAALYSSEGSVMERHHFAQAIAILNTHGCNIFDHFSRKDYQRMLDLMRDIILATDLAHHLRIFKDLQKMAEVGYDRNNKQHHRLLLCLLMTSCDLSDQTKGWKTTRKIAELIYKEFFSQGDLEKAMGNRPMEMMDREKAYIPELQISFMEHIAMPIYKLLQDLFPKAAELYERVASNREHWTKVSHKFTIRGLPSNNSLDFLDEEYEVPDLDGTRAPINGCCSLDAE

Row | SMILES | Ki (human PDE2A1; [2]) [nM] | other results
1 | Cc1cc(N[C@@H](c2ccc(C(F)(F)F)c(F)c2)C(C)(C)C)n2nccc2n1 [Example 48, N-{(1R)-1-[3-Fluoro-4-(trifluoromethyl)phenyl]-2,2-dimethylpropyl}-5-methylpyrazolo[1,5-a]pyrimidin-7-amine] | 174 | –
2 | CC(Nc1nc(Cl)nc2c1cnn2C(C)C)c1ccc(C(F)(F)F)cc1 (stereo not shown) [Example 18, 6-Chloro-1-(1-methylethyl)-N-{1-[4-(trifluoromethyl)phenyl]ethyl}-1H-pyrazolo[3,4-d]pyrimidin-4-amine] | – | Ki (Rhesus PDE2A3; [3]): 1970 nM
3 | Cn1ncc2c(NC3(c4ccc(C(F)(F)F)cc4)CC3)nc(C#N)nc21 [Example 29, 1-Methyl-4-{1-[4-(trifluoromethyl)phenyl]cyclopropylamino}-1H-pyrazolo[3,4-d]pyrimidine-6-carbonitrile] | 39 | Ki (Rhesus PDE2A3; [4]): 47 nM
4 | Cc1cc(NC2(c3ccc(C(F)(F)F)c(F)c3)CC2)n2ncc(C#N)c2n1 [Example 39, 7-((1-(3-Fluoro-4-(trifluoromethyl)phenyl)cyclopropyl)amino)-5-methylpyrazolo[1,5-a]pyrimidine-3-carbonitrile] | 503 | –
5 | Cc1cc(NC2(c3ccc(C(F)(F)F)c(F)c3)CC2)n2nc(CO)cc2n1 [Example 43, [7-({1-[3-Fluoro-4-(trifluoromethyl)phenyl]cyclopropyl}amino)-5-methylpyrazolo[1,5-a]pyrimidin-2-yl]methanol] | 169 | –
6 | Cc1nc(N(C)C2(c3ccc(C(F)(F)F)cc3)CC2)c2cnn(C)c2n1 [Example 26, N,1,6-Trimethyl-N-{1-[4-(trifluoromethyl)phenyl]cyclopropyl}-1H-pyrazolo[3,4-d]pyrimidin-4-amine] | 4.9 | –
7 | COc1ccc(Cc2nn3c([C@@H](CCCc4ccccc4)[C@@H](C)O)nc(C)c3c(=O)[nH]2)cc1OC [Bay 60-7550] | – | brain penetration [1]: limited
8 | CC(C)(O)C(Nc1nc(C(F)(F)F)cc2nccn12)c1ccc(C(F)(F)F)c(F)c1 (single isomer, unassigned) [Example 34, (S or R)-1-[3-Fluoro-4-(trifluoromethyl)phenyl]-2-methyl-1-{[7-(trifluoromethyl)imidazo[1,2-c]pyrimidin-5-yl]amino}propan-2-ol] | – | Ki (human PDE2A1; [5]): > 2960 nM
9 | CC(C)(O)C(Nc1nc(C(F)(F)F)cc2nccn12)c1ccc(C(F)(F)F)c(F)c1 (single isomer, unassigned) [Example 33, (R or S)-1-[3-Fluoro-4-(trifluoromethyl)phenyl]-2-methyl-1-{[7-(trifluoromethyl)imidazo[1,2-c]pyrimidin-5-yl]amino}propan-2-ol] | – | Ki (human PDE2A1; [5]): 1330 nM
10 | CC(Nc1nc(Cl)nc2c1cnn2C)c1ccc(-n2cccn2)cc1 (stereo not shown) [Example 7, 6-Chloro-1-methyl-N-{1-[4-(1H-pyrazol-1-yl)phenyl]-ethyl}-1H-pyrazolo[3,4-d]-pyrimidin-4-amine] | – | Ki (Rhesus PDE2A3; [3]): 2650 nM
11 | Cc1cc(NC2(c3ccc(C(F)(F)F)c(F)c3)CC2)n2ccnc2n1 [Example 31, N-(1-(3-Fluoro-4-(trifluoromethyl)phenyl)cyclopropyl)-7-methylimidazo[1,2-a]pyrimidin-5-amine] | – | Ki (human PDE2A1; [5]): 55 nM
12 | Cc1nc(NC2(c3ccc(C(F)(F)F)c(F)c3)CC2)c2cnn(CC(F)(F)F)c2n1 [Example 28, N-{1-[3-Fluoro-4-(trifluoromethyl)phenyl]cyclopropyl}-6-methyl-1-(2,2,2-trifluoroethyl)-1H-pyrazolo[3,4-d]pyrimidin-4-amine] | 76 | Ki (Rhesus PDE2A3; [4]): 98 nM
13 | Cn1ncc2c(NC3(c4ccc(C(F)(F)F)cc4)CC3)nc(C(F)(F)F)nc21 [Example 19, 1-Methyl-6-(trifluoromethyl)-N-(1-(4-(trifluoromethyl)phenyl)cyclopropyl)-1H-pyrazolo[3,4-d]pyrimidin-4-amine] | 67 | Ki (Rhesus PDE2A3; [4]): 80 nM
14 | Cc1cc(N[C@@H](c2ccc(C(F)(F)F)c(F)c2)C(C)(C)C)n2ncc(CO)c2n1 [Example 46] | ~2640 | –
15 | Cc1cc(NC2(c3ccc(C(F)(F)F)c(F)c3)CC2)n2ncc(N)c2n1 [Example 41, N^7-{1-[3-Fluoro-4-(trifluoromethyl)phenyl]cyclopropyl}-5-methylpyrazolo[1,5-a]pyrimidine-3,7-diamine] | 337 | –
16 | Cc1nc(OC2(c3ccc(C(F)(F)F)cc3)CC2)c2cnn(C)c2n1 [Example 30, 1,6-Dimethyl-4-({1-[4-(trifluoromethyl)phenyl]cyclopropyl}oxy)-1H-pyrazolo[3,4-d]pyrimidine] | 32 | –
17 | Cc1cc(N[C@@H](c2ccc(C(F)(F)F)c(F)c2)C(C)(C)C)n2ccnc2n1 [Example 32, (R)—N-(1-(3-Fluoro-4-(trifluoromethyl)phenyl)-2,2-dimethylpropyl)-7-methylimidazo[1,2-a]pyrimidin-5-amine] | 51 | –
18 | CCC(Nc1nc(Cl)nc2c1cnn2C)c1ccc(C(C)C)cc1 (stereo not shown) [Example 6, 6-Chloro-1-methyl-N-{1-[4-(1-methylethyl)-phenyl]propyl}-1H-pyrazolo-[3,4-d]pyrimidin-4-amine] | – | Ki (Rhesus PDE2A3; [3]): 468 nM

Row | SMILES | Ki (human PDE2A1; [2]) [nM] | other results
19 | CN(c1nc(Cl)nc2c1cnn2C)C1(c2ccc(C(F)(F)F)cc2)CC1 [Example 17, 6-Chloro-N,1-dimethyl-N-{1-[4-(trifluoromethyl)phenyl]cyclopropyl}-1H-pyrazolo[3,4-d]pyrimidin-4-amine] | 3.8 | Ki (Rhesus PDE2A3; [3]): 1.5 nM; Ki (Rhesus PDE2A3; [4]): 6 nM
20 | Cc1nc(NC2(c3ccc(C(F)(F)F)cc3F)CC2)c2cnn(C)c2n1 [Example 24, N-{1-[2-Fluoro-4-(trifluoromethyl)-phenyl]cyclo-propyl}-1,6-dimethyl-1H-pyrazolo[3,4-d]-pyrimidin-4-amine] | 29 | –
21 | Cc1cc(N[C@@H](c2ccc(C(F)(F)F)c(F)c2)C(C)(C)C)n2ncc(N)c2n1 [Example 42, N^7-{(1R)-1-[3-Fluoro-4-(trifluoromethyl)phenyl]-2,2-dimethylpropyl}-5-methylpyrazolo[1,5-a]pyrimidine-3,7-diamine] | 580 | –
22 | Cc1nc(NC2(c3ccc(OC(F)(F)F)c(F)c3)CC2)c2cnn(C)c2n1 [Example 22] | 35 | Ki (Rhesus PDE2A3; [4]): 55 nM
23 | CCN(Cc1ccc(C(F)(F)F)cc1)c1nc(Cl)nc2c1cnn2C [Example 16, 6-Chloro-N-ethyl-1-methyl-N-[4-(trifluoromethyl)-benzyl]-1H-pyrazolo-[3,4-d]pyrimidin-4-amine] | – | Ki (Rhesus PDE2A3; [3]): 866 nM; Ki (human PDE2A1; [6]): 429 nM
24 | Cc1nc(NC2(c3ccc(SC(F)(F)F)cc3)CC2)c2cnn(C)c2n1 [Example 23, 1,6-Dimethyl-N-(1-{4-[(trifluoromethyl)-sulfanyl]phenyl}-cyclopropyl)-1H-pyrazolo[3,4-d]-pyrimidin-4-amine] | 16 | Ki (Rhesus PDE2A3; [4]): 20 nM
25 | Cc1cc(NC2(c3ccc(C(F)(F)F)c(F)c3)CC2)n2ncc(CO)c2n1 [Example 45, [7-({1-[3-Fluoro-4-(trifluoromethyl)phenyl]cyclopropyl}amino)-5-methylpyrazolo[1,5-a]pyrimidin-3-yl]methanol] | 682 | –
26 | Cc1nc(NC2(c3ccc(C(F)(F)F)cc3)CCC2)c2cnn(C)c2n1 [Example 25, 1,6-Dimethyl-N-{1-[4-(trifluoro-methyl)phenyl]-cyclobutyl}-1H-pyrazolo[3,4-d]-pyrimidin-4-amine] | 430 | Ki (Rhesus PDE2A3; [4]): 358 nM
27 | Cc1nc(NC2(c3ccc(C(F)(F)F)c(F)c3)CC2)c2ncn(C)c2n1 [Example 37, N-(1-(3-Fluoro-4-(trifluoromethyl)phenyl)cyclopropyl)-2,9-dimethyl-9H-purin-6-amine] | 115 | –
28 | C[C@H](c1ccc(C(F)(F)F)cc1)N(C)c1nc(Cl)nc2c1cnn2C [Example 14, 6-Chloro-N,1-dimethyl-N-{(1R)-1-[4-(trifluoromethyl)phenyl]ethyl}-1H-pyrazolo[3,4-d]pyrimidin-4-amine] | – | Ki (Rhesus PDE2A3; [3]): 137 nM; Ki (human PDE2A1; [6]): 65 nM
29 | CN(Cc1ccc(C(F)(F)F)cc1)c1nc(Cl)nc2c1cnn2C [Example 15, 6-Chloro-N,1-dimethyl-N-[4-(trifluoromethyl)-benzyl]-1H-pyrazolo-[3,4-d]pyrimidin-4-amine] | – | Ki (Rhesus PDE2A3; [3]): 997 nM
30 | Cc1cc(NC2(c3ccc(C(F)(F)F)c(F)c3)CC2)n2nccc2n1 [Example 47, N-{1-[3-Fluoro-4-(trifluoromethyl)phenyl]cyclopropyl}-5-methylpyrazolo[1,5-a]pyrimidin-7-amine] | 199 | –
31 | Cc1nc(N[C@H](C)c2ccc(C(F)(F)F)cc2)c2cnn(C)c2n1 [Example 21, 1,6-Dimethyl-N-{(1R)-1-[4-(trifluoromethyl)-phenyl]ethyl}-1H-pyrazolo[3,4-d]-pyrimidin-4-amine] | – | Ki (Rhesus PDE2A3; [3]): 194 nM; Ki (human PDE2A1; [6]): 140 nM
32 | CC(C)c1ccc(C(C)Nc2nc(Cl)nc3c2cnn3C)cc1 (stereo not shown) [Example 5, 6-Chloro-1-methyl-N-{1-[4-(1-methylethyl)-phenyl]ethyl}-1H-pyrazolo-[3,4-d]pyrimidin-4-amine] | – | Ki (Rhesus PDE2A3; [3]): 401 nM
33 | Cc1cc(N[C@@H](c2ccc(C(F)(F)F)c(F)c2)C(C)(C)C)n2ncc(C#N)c2n1 [Example 40, 7-({(1R)-1-[3-Fluoro-4-(trifluoromethyl)phenyl]-2,2-dimethylpropyl}amino)-5-methylpyrazolo[1,5-a]pyrimidine-3-carbonitrile] | 462 | –
34 | Cc1nc(NC2(c3ccc(C(F)(F)F)c(F)c3)CC2)c2nc[nH]c2n1 [Example 36, N-{1-[3-Fluoro-4-(trifluoromethyl)phenyl]cyclopropyl}-2-methyl-9H-purin-6-amine] | 206 | –
35 | Cc1nc(N[C@@H](c2ccc(C(F)(F)F)c(F)c2)C(C)(C)C)c2nc[nH]c2n1 [Example 35] | 566 | –
